Results: patent US20220152226A1, “INTRACELLULAR DELIVERY AND MITOCHONDRIAL TARGETING BY FLUORINATION” (The Texas A&M University System, priority 2019, published 2022)

Key:
mitochondria = experiment: Quantification of mitochondria-accumulated dyes in living cells; type: cell-based
Experimental: For quantification of the mitochondria-accumulated dyes in living cells, 2×10^7 cells were incubated with the FITC-PE, FITC-F7, or Rh123 at 37° C. for 1 h. After washing with PBS, the (total) cellular fluorescence intensity was measured by microplate reader. Then, the cells were lysed and the mitochondria were separated from other cell fragments by Mitochondria Isolation Kit for Cultured Cells (Option A). The fluorescence intensities of the isolated mitochondria and other cell fragments were measured by the microplate reader. To study the influence of mitochondrial membrane potential on mitochondrial targeting, the cells were pre-incubated with the uncoupler, CCCP (50 μM), for 15 min, and then incubated with the FITC-F7 or Rh123 for 1 h.

[1] = Body weight and white blood cell counts of treated 4T1 tumor mice; type: in vivo, BALB/c mice
Experimental: Animal experiments. The subcutaneous (s.c.) syngeneic 4T1 tumor mouse model was established by s.c. implantation of 5×10^6 4T1 cells in the right rear flank of the BALB/c mice. The tumor was measured by a caliper.
To study anticancer activity, the saline, VES, PEG2k-F7, VES-loaded PEG2k-PE micelles and VES-loaded PEG2k-F7 micelles were injected intravenously via the tail at a dose of 20 mg/kg every three days for 3 injections. The tumor size and mouse body weight were monitored every other day. The mice were sacrificed and the blood, major organs and tumors were collected. White blood cells were counted by using a hemocytometry by microscopy.

[2] = tested on: isolated mitochondria (HeLa cells); experiment: Binding affinity study with isolated mitochondria; parameters: species or system human; conditions: 37° C., 1 h, fluorescence
Experimental: (§1) Mitochondria Isolation and Binding Affinity Study. The intracellular mitochondria were isolated by the commercial Mitochondria Isolation Kit for Cultured Cells (Thermo Fisher Scientific). Briefly, 2×10^7 HeLa cells were collected by trypsinization and centrifugation (850 g for 2 min). Then, the cells were lysed and the mitochondria were separated from other cell fragments by several washing and centrifugation steps as the manufacture's manual (Option A). The isolated mitochondria were freshly made for the binding affinity study.
The isolated mitochondria were incubated with the FITC-PEG2k, FITC-PE, FITC-F7, FITC-PEG2k-F7, Rh123, and MITOVIEW™ Green at 37° C. for 1 h, respectively. Then, the mitochondria were washed with PBS for three times and suspended in 200 μL PBS. The mitochondria suspension was observed on a Nikon Ti Eclipse fluorescence microscope. The fluorescence intensity was recorded on the microplate reader.

HeLa cells = experiment: Mitochondrial membrane potential measurement (JC-1 dye, flow cytometry); type: cell-based, human; conditions: 50 μM, 1 h, compared to untreated cells (FIG. 6B)
Experimental: Mitochondrial Membrane Potential Measurement. The mitochondrial membrane potential was determined using the JC-1 dye by flow cytometry. Briefly, the HeLa cells were seeded at a density of 1×10^5 cells/well in 24-well plates for 24 h. The cells were incubated with the same molar concentration (50 μM) of the PEG2k-F7, TPP and CCCP (mitochondrial uncoupler) in the serum-free medium for 1 h. Then, the cells were washed three times by the iced-cold medium to remove the uninternalized materials. The cells were incubated with the JC-1 dye (Biotium) for 15 min at 37° C., followed by the flow cytometry.

[3] = tested on: isolated mitochondria (HeLa cells); experiment: Competitive binding assay on isolated mitochondria (Rh123); parameters: species or system human; conditions: pre-incubation 37° C. 1 h, then Rh123 1 h
Experimental: as §1
For the competitive binding assay, the isolated mitochondria were pre-incubated with triphenylphosphonium (TPP) or PEG2k-F7 at 37° C. for 1 h, and then washed with PBS for three times. The pretreated mitochondria were incubated with Rh123 at 37° C. for additional 1 h. After washing with PBS for three times, the mitochondria were analyzed by the microplate reader.

## rhodamine 123 [Rh123]
mitochondria; CCCP 50 μM pre-incubation 15 min, then dye 1 h
  effect of CCCP-induced membrane depolarization on mitochondrial accumulation: substantially reduced
mitochondria; mitochondria isolated from treated cells, 37° C., 1 h
  mitochondrial accumulation: 17.5%

## Cc1c(C)c2c(c(C)c1OC(=O)CCC(=O)O)CC[C@@](C)(CCC[C@H](C)CCC[C@H](C)CCCC(C)C)O2 [VES, d-Vitamin E succinate]
[1]; FIG. 13
  white blood cell (WBC) counts: relatively similar to one another
[1]; over 14 days (FIG. 10)
  body weight of mice: stayed relatively the same

## fluorescein isothiocyanate [FITC]
[2]
  binding affinity with isolated mitochondria: did not significantly bind

## c1ccc(P(c2ccccc2)c2ccccc2)cc1 [TPP, triphenylphosphonium]
HeLa cells
  effect on mitochondrial membrane potential: dramatically depolarized mitochondria
[3]
  decrease of Rh123 binding affinity by pre-incubation: about 50%
